Values after ≈ are worked out from the molar mass of the structure shown. Counter-ions that a name gives are not always drawn.
What was measured:
[1] = system: H37Rv strain of M. tuberculosis; assay: Alamar Blue Susceptibility Test (MABA); type: cell-based; settings: Mycobacterium tuberculosis; H37Rv strain of M. tuberculosis; Alamar Blue; read-out: MABA (TB growth inhibition, colourimetric assay)
[2] = system: non replicating phase of M. tuberculosis (H37Rv with a plasmid with an acetimidase promoter driving a luciferase gene); assay: microbe, parasite or virus in culture; type: cell-based; settings: non replicating M. tuberculosis H37Rv luciferase strain; for MIC: Mycobacterium tuberculosis, read-out: LORA (TB growth inhibition, MIC)

Compound | MIC [1] [µM] | MIC [2] [µM] | LORA (TB growth inhibition, MIC) [2]
C[C@@H](Nc1nc(N2CCCCC2)nc2ccccc12)c1ccc(F)cc1 [Compound 98, (R)—N-(1-(4-Fluorophenyl)ethyl)-2-(piperidin-1-yl)quinazolin-4-amine hydrochloride] | < 10 | 10 to 50 | 
C[C@@H](Nc1nc(N2CCCCC2)nc2ccccc12)c1cccc2ccccc12 [Compound 99, (R)—N-(1-(Naphthalen-1-yl)ethyl)-2-(piperidin-1-yl)quinazolin-4-amine hydrochloride] | < 10 | 10 to 50 | 
C[C@@H](Nc1nc(N2CCCCC2)nc2ccccc12)c1ccc2ccccc2c1 [Compound 100, (R)—N-(1-(Naphthalen-2-yl)ethyl)-2-(piperidin-1-yl)quinazolin-4-amine hydrochloride] | < 10 | 10 to 50 | 
FC(F)(F)c1ccc(CCNc2nc(N3CCCCC3)nc3ccccc23)cc1 [Compound 105, 2-(Piperidin-1-yl)-N-(4-(trifluoromethyl)phenethyl)quinazolin-4-amine] | < 10 | < 10 | 
Clc1ccc(CNc2nc(N3CCc4ccccc4C3)nc3ccccc23)cc1 [Compound 106, N-(4-Chlorobenzyl)-2-(3,4-dihydroisoquinolin-2(1H)-yl)quinazolin-4-amine hydrochloride] | < 10 | < 10 | 
Clc1ccc(CNc2nc(N3CCCCC3)c3ccccc3n2)c(Cl)c1 [Compound 112, N-(2,4-Dichlorobenzyl)-4-(piperidin-1-yl)quinazolin-2-amine hydrochloride] | < 10 | < 10 | 
FC(F)(F)c1ccc(CNc2nc(N3CCc4ccccc4C3)nc3ccccc23)cc1 [Compound 114, 2-(3,4-Dihydroisoquinolin-2(1H)-yl)-N-(4-(trifluoromethyl)benzyl)quinazolin-4-amine hydrochloride] | < 10 | < 10 | 
Fc1ccc(CNc2nc(N3CCCCC3)nc3ccccc23)c(F)c1 [Compound 115, N-(2,4-Difluorobenzyl)-2-(piperidin-1-yl)quinazolin-4-amine hydrochloride] | < 10 | 10 to 50 | 
Fc1ccc(CNc2nc(N3CCCCC3)nc3ccccc23)cc1F [Compound 116, N-(3,4-Difluorobenzyl)-2-(piperidin-1-yl)quinazolin-4-amine hydrochloride] | < 10 | 10 to 50 | 
C[C@@H](Nc1nc(N2CCCCC2)nc2ccccc12)c1ccc(C(F)(F)F)cc1 [Compound 117, (R)-2-(Piperidin-1-yl)-N-(1-(4-(trifluoromethyl)phenyl)ethyl)quinazolin-4-amine] | < 10 | < 10 | 
CC(C)(Nc1nc(N2CCCCC2)nc2ccccc12)c1ccc(F)cc1 [Compound 120, N-(2-(4-Fluorophenyl)propan-2-yl)-2-(piperidin-1-yl)quinazolin-4-amine] | < 10 | 10 to 50 (≈ 3.64 to 18.2 µg/mL) | 
CCC(CC)(Nc1nc(N2CCCC2)nc2ccccc12)c1ccccc1 [Compound 124, N-(3-Phenylpentan-3-yl)-2-(pyrrolidin-1-yl)quinazolin-4-amine] | < 10 | 10 to 50 (≈ 3.61 to 18 µg/mL) | 
Clc1ccc(CNc2nc(NCc3ccccc3)c3ccccc3n2)cc1 [Compound 127, N^4-Benzyl-N^2-(4-chlorobenzyl)quinazoline-2,4-diamine hydrochloride] | < 10 | < 10 | 
FC(F)(F)c1ccc(CNc2nc(NCc3ccccc3)c3ccccc3n2)cc1 [Compound 128, N^4-Benzyl-N^2-(4-(trifluoromethyl)benzyl)quinazoline-2,4-diamine hydrochloride] | < 10 | < 10 | 
c1ccc(CNc2nc(N3Cc4ccccc4C3)nc3ccccc23)cc1 [Compound 130, N-Benzyl-2-(isoindolin-2-yl)quinazolin-4-amine] | < 10 |  | −
c1ccc(CNc2nc(NC3Cc4ccccc4C3)nc3ccccc23)cc1 [Compound 131, N^4-Benzyl-N^2-(2,3-dihydro-1H-inden-2-yl)quinazoline-2,4-diamine] | < 10 | < 10 | 
c1ccc(CNc2nc(N3CCC(c4ccccc4)CC3)nc3ccccc23)cc1 [Compound 132, N-Benzyl-2-(4-phenylpiperidin-1-yl)quinazolin-4-amine hydrochloride] | < 10 | < 10 | 
c1ccc(CNc2nc(N3CCN(c4ccccc4)CC3)nc3ccccc23)cc1 [Compound 133, N-Benzyl-2-(4-phenylpiperazin-1-yl)quinazolin-4-amine hydrochloride] | < 10 | 10 to 50 | 
Clc1ccc(N2CCN(c3nc(NCc4ccccc4)c4ccccc4n3)CC2)cc1 [Compound 134, N-Benzyl-2-(4-(4-chlorophenyl)piperazin-1-yl)quinazolin-4-amine hydrochloride] | < 10 | 10 to 50 | 
FC(F)(F)c1ccc(N2CCN(c3nc(NCc4ccccc4)c4ccccc4n3)CC2)cc1 [Compound 135, N-Benzyl-2-(4-(4-(trifluoromethyl)phenyl)piperazin-1-yl)quinazolin-4-amine hydrochloride] | < 10 | 10 to 50 | 
COc1ccc(N2CCN(c3nc(NCc4ccccc4)c4ccccc4n3)CC2)cc1 [Compound 136, N-Benzyl-2-(4-(4-methoxyphenyl)piperazin-1-yl)quinazolin-4-amine hydrochloride] | < 10 | 10 to 50 | 

Source: patent publication US20100317607A1, “USE OF COMPOUNDS FOR PREPARING ANTI-TUBERCULOSIS AGENTS” (INFECTIOUS DISEASE RESEARCH INSTITUTE, priority 2007, published 2010)
